In patent US9499538B2, “Estrogen receptor modulators and uses thereof” (Seragon Pharmaceuticals, Inc., priority 2012, dated 2016):

Key:
ER-α in MCF-7 cells = biological target: T1, ER-α in MCF-7 cells (Homo sapiens, UniProt P03372); test: Breast Cancer Cell ER-α In Cell Western Assay (SP1); assay type: cell-based; settings: 4 or 24 hr post compound addition; for Emax: MCF7, SP1 antibody, read-out: ER-α In Cell Western Assay (SP1) Max Response; for DC50: SP1 antibody, read-out: ER-α In Cell Western Assay (SP1) IC50
T1 construct: endogenous in cells; host or cells: MCF-7
T1 sequence (P03372 1-595): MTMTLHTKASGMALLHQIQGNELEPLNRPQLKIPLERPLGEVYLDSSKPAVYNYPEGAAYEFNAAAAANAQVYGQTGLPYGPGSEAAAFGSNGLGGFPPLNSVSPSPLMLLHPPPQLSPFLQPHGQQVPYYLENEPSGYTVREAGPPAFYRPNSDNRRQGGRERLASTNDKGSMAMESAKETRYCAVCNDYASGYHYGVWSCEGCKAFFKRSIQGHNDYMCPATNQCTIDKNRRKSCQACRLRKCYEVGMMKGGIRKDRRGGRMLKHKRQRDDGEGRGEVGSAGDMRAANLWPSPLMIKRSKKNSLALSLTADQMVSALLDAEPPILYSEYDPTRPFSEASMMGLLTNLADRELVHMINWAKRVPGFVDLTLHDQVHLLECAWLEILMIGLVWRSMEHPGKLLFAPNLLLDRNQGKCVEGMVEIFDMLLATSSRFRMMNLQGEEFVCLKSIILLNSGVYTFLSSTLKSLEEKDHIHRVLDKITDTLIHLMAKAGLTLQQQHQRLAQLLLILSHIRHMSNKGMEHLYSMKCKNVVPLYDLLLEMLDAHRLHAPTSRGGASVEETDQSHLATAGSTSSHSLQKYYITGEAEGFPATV
Summary of the method: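 ER-α levels quantified by in-cell western: SP1 signal normalised to DRAQ5 DNA stain, relative to untreated cells (% ER). Compounds at 0.3–0.000003 μM final, 11-point semilog series, 4 or 24 h exposure of MCF-7 cells grown in charcoal-stripped serum.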

MCF-7 cells = test: Breast Cancer Cell Viability Assays (MCF-7, CellTiter-Glo); assay type: cell-based; settings: 5 days' compound exposure; for IC50: Homo sapiens, MCF7, 120 h
Summary of the method: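 Percent viability, background-subtracted against untreated wells, was taken from CellTiter-Glo luminescence after 5 days' exposure of MCF-7 cells. Compounds were tested at eleven semilog concentrations, final 0.3–0.000003 μM, in RPMI containing 10% FBS.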

SMILES	Emax (ER-α in MCF-7 cells) [%]	DC50 (ER-α in MCF-7 cells) [nM]	MCF7 Viability Assay Max Response (MCF-7 cells)	IC50 (MCF-7 cells) [nM]
O=C(O)/C=C/c1ccc(/C(=C(\c2ccccc2)C2CC2)c2ccc3[nH]nc(F)c3c2)cc1 [Example 26, (E)-3-(4-((E)-2-Cyclopropyl-1-(3-fluoro-1H-indazol-5-yl)-2-phenylvinyl)phenyl)acrylic acid]	≥ 40	≤ 100	++ (++ = a single % value ≧ 40%)	≤ 100
O=C(O)/C=C/c1ccc(/C(=C(\c2cccnc2)C2CCC2)c2ccc3[nH]nc(F)c3c2)cc1 [Example 128, (E)-3-(4-((E)-2-Cyclobutyl-1-(3-fluoro-1H-indazol-5-yl)-2-(pyridin-3-yl)vinyl)phenyl)acrylic acid]	≥ 40	≤ 100	+ (+ = a single % value < 40%)	> 100
CC/C(=C(/c1ccc(/C=C/C(=O)O)cc1)c1ccc2[nH]nc(F)c2c1)c1ncccc1C(F)(F)F [Example 263, (E)-3-(4-((E)-1-(3-Fluoro-1H-indazol-5-yl)-2-(3-(trifluoromethyl)pyridin-2-yl)but-1-en-1-yl)phenyl)acrylic acid]	≥ 40	≤ 100	++ (++ = a single % value ≧ 40%)	≤ 100
O=c1[nH]c(/C=C/c2ccc(/C(=C(\c3ccccc3)C3CCC3)c3ccc4[nH]nc(F)c4c3)cc2)no1 [Example 202, 3-((E)-4-((E)-2-Cyclobutyl-1-(3-fluoro-1H-indazol-5-yl)-2-phenylvinyl)styryl)-1,2,4-oxadiazol-5(4H)-one]	≥ 40	≤ 100	++ (++ = a single % value ≧ 40%)	≤ 100
O=C(O)/C=C/c1ccc(/C(=C(\c2ccc(F)cc2Cl)C2CCC2)c2cc3ccccc3o2)cc1 [Example 75, (E)-3-(4-((E)-1-(Benzofuran-2-yl)-2-(2-chloro-4-fluorophenyl)-2-cyclobutylvinyl)phenyl)acrylic acid]	≥ 40	≤ 100	++ (++ = a single % value ≧ 40%)	≤ 100
O=C(O)/C=C/c1ccc(/C(=C(\c2ccc(F)cc2C(F)(F)F)C2CCC2)c2ccc3[nH]nc(F)c3c2)cn1 [Example 269, (E)-3-(5-((Z)-2-Cyclobutyl-1-(3-fluoro-1H-indazol-5-yl)-2-(4-fluoro-2-(trifluoromethyl)phenyl)vinyl)pyridin-2-yl)acrylic acid]	≥ 40	≤ 100	++ (++ = a single % value ≧ 40%)	≤ 100
Cc1cnccc1/C(=C(\c1ccc(/C=C/C(=O)O)cc1)c1ccc2[nH]nc(F)c2c1)C1CCC1 [Example 46, (E)-3-(4-((E)-2-Cyclobutyl-1-(3-fluoro-1H-indazol-5-yl)-2-(3-methylpyridin-4-yl)vinyl)phenyl)acrylic acid]	≥ 40	≤ 100	++ (++ = a single % value ≧ 40%)	≤ 100
COc1ccc(/C(=C(\c2ccc(/C=C/C(=O)O)nc2)c2ccc3[nH]nc(F)c3c2)C2CCC2)c(Cl)c1 [Example 270, (E)-3-(5-((Z)-2-(2-Chloro-4-methoxyphenyl)-2-cyclobutyl-1-(3-fluoro-1H-indazol-5-yl)vinyl)pyridin-2-yl)acrylic acid]	≥ 40	≤ 100	++ (++ = a single % value ≧ 40%)	≤ 100
O=C(O)/C=C/c1ccc(/C(=C(\c2ncc(Cl)cc2Cl)C2CCC2)c2ccc3[nH]nc(F)c3c2)cc1F [Example 254, (E)-3-(4-((Z)-2-Cyclobutyl-2-(3,5-dichloropyridin-2-yl)-1-(3-fluoro-1H-indazol-5-yl)vinyl)-2-fluorophenyl)acrylic acid]	≥ 40	≤ 100	++ (++ = a single % value ≧ 40%)	≤ 100
O=C(O)/C=C/c1ccc(/C(=C(\c2ccccc2)C2CCC2)c2ccc3c(c2)c(F)nn3CCO)cc1 [Example 201, (E)-3-(4-((E)-2-Cyclobutyl-1-(3-fluoro-1-(2-hydroxyethyl)-1H-indazol-5-yl)-2-phenylvinyl)phenyl)acrylic acid]	≥ 40	≤ 100	++ (++ = a single % value ≧ 40%)	> 100
O=C(O)/C=C/c1ccc(/C(=C(\c2cccc(F)c2Cl)C2CCC2)c2ccc3scnc3c2)cc1 [Example 235, (E)-3-(4-((E)-1-(Benzo[d]thiazol-5-yl)-2-(2-chloro-3-fluorophenyl)-2-cyclobutylvinyl)phenyl)acrylic acid]	≥ 40	≤ 100	++ (++ = a single % value ≧ 40%)	≤ 100
N#Cc1c(/C(=C(/c2ccccc2)C2CCC2)c2ccc(/C=C/C(=O)O)cc2)ccc2[nH]ncc12 [Example 1, (E)-3-(4-((E)-1-(4-Cyano-1H-indazol-5-yl)-2-cyclobutyl-2-phenylvinyl)phenyl)acrylic acid]	≥ 40	≤ 100	++ (++ = a single % value ≧ 40%)	≤ 100
O=C(O)/C=C/c1ccc(/C(=C(\c2ccc(F)cc2Cl)C2CCC2)c2ccc3[nH]ncc3n2)cc1 [Example 34, (E)-3-(4-((E)-2-(2-Chloro-4-fluorophenyl)-2-cyclobutyl-1-(1H-pyrazolo[4,3-b]pyridin-5-yl)vinyl)phenyl)acrylic acid]	≥ 40	≤ 100	++ (++ = a single % value ≧ 40%)	≤ 100
Cc1ccccc1/C(=C(\c1ccc(/C=C/C(=O)O)cc1)c1ccc2[nH]ncc2c1C#N)C1CCC1 [Example 11, (E)-3-(4-((E)-1-(4-Cyano-1H-indazol-5-yl)-2-cyclobutyl-2-(o-tolyl)vinyl)phenyl)acrylic acid]	≥ 40	≤ 100	++ (++ = a single % value ≧ 40%)	≤ 100
COc1cccc2c(/C(=C(/c3ccncc3Cl)C3CCC3)c3ccc(/C=C/C(=O)O)cc3)coc12 [Example 78, (E)-3-(4-((E)-2-(3-Chloropyridin-4-yl)-2-cyclobutyl-1-(7-methoxybenzofuran-3-yl)vinyl)phenyl)acrylic acid]	≥ 40	≤ 100	++ (++ = a single % value ≧ 40%)	≤ 100
N#Cc1cc(C(F)(F)F)ccc1/C(=C(\c1ccc(/C=C/c2noc(=O)[nH]2)cc1)c1ccc2[nH]nc(F)c2c1)C1CCC1 [Example 280, 2-((E)-1-Cyclobutyl-2-(3-fluoro-1H-indazol-5-yl)-2-(4-((E)-2-(5-oxo-4,5-dihydro-1,2,4-oxadiazol-3-yl)vinyl)phenyl)vinyl)-5-(trifluoromethyl)benzonitrile]	≥ 40	≤ 100	++ (++ = a single % value ≧ 40%)	≤ 100
O=C(O)/C=C/c1ccc(/C(=C(\c2ccc(F)cc2C(F)(F)F)C2CCC2)c2ccc3nccn3c2)cc1 [Example 221, (E)-3-(4-((E)-2-Cyclobutyl-2-(4-fluoro-2-(trifluoromethyl)phenyl)-1-(imidazo[1,2-a]pyridin-6-yl)vinyl)phenyl)acrylic acid]	≥ 40	≤ 100	++ (++ = a single % value ≧ 40%)	≤ 100
O=C(O)/C=C/c1ccc(/C(=C(\c2ccccc2Cl)C2CCC2)c2ccc3[nH]nc(F)c3c2)cc1 [Example 124, (E)-3-(4-((E)-2-(2-Chlorophenyl)-2-cyclobutyl-1-(3-fluoro-1H-indazol-5-yl)vinyl)phenyl)acrylic acid]	≥ 40	≤ 100	++ (++ = a single % value ≧ 40%)	≤ 100
CC/C(=C(/c1ccc(/C=C/C(=O)O)cc1)c1ccc2[nH]nc(F)c2c1)c1ccc(F)cc1C#N [Example 102, (E)-3-(4-((E)-2-(2-Cyano-4-fluorophenyl)-1-(3-fluoro-1H-indazol-5-yl)but-1-en-1-yl)phenyl)acrylic acid]	≥ 40	≤ 100	++ (++ = a single % value ≧ 40%)	≤ 100
O=C(O)/C=C/c1ccc(/C(=C(\c2ccccc2Cl)C2CCC2)c2ccc3[nH]nc(F)c3c2)cn1 [Example 169, (E)-3-(5-((Z)-2-(2-Chlorophenyl)-2-cyclobutyl-1-(3-fluoro-1H-indazol-5-yl)vinyl)pyridin-2-yl)acrylic acid]	≥ 40	≤ 100	++ (++ = a single % value ≧ 40%)	≤ 100
